Experimental data from patent publication US10927123B2, “Modulators of the beta-3 adrenergic receptor useful for the treatment or prevention of disorders related thereto” (Arena Pharmaceuticals, Inc., priority 2016, dated 2021).

target: Beta-3 Adrenergic Receptor (Homo sapiens (Human), UniProt P13945); assay: HTRF cAMP antagonist assay (IC50 determination); type: cell-based; details: CHO-K1 cells stably expressing recombinant receptor; antagonism of isoproterenol at EC90; cAMP readout
Summary of the method: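 CHO-K1 cells stably expressing the recombinant receptor were preincubated with compound (10-point, 5-fold dilutions; top final typically 10 or 100 μM) in PBS with 1 mM IBMX, then stimulated with isoproterenol at its EC90 for 1 h at room temperature. cAMP was read by HTRF against an on-plate standard curve.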

Sequence of Beta-3 Adrenergic Receptor (P13945 whole entry, species assumed): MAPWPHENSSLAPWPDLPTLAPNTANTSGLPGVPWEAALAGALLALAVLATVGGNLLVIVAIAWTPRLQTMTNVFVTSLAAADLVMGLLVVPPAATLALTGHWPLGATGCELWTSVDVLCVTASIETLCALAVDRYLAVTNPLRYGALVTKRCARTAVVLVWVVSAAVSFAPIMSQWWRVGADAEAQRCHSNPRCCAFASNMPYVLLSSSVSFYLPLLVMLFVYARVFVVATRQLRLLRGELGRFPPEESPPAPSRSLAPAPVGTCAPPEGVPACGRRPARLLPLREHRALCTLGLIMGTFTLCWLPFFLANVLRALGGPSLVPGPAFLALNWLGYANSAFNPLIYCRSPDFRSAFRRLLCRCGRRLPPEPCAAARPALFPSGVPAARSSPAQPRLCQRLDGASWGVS

SMILES	IC50 [nM]
CS(=O)(=O)c1cccc(OC[C@@H](O)CNC2COC3(CCN(C(=O)c4c[nH]c5ccccc45)CC3)C2)c1 (stereo partly drawn) [Compound 66, (3-((S)-2-hydroxy-3-(3-(methylsulfonyl)phenoxy)propylamino)-1-oxa-8-azaspiro[4.5]decan-8-yl)(1H-indol-3-yl)methanone]	982
CS(=O)(=O)c1cccc(OC[C@@H](O)CNC2COC3(CCN(C(=O)c4ccc5cc[nH]c5c4)CC3)C2)c1 (stereo partly drawn) [Compound 68, (3-((S)-2-hydroxy-3-(3-(methylsulfonyl)phenoxy)propylamino)-1-oxa-8-azaspiro[4.5]decan-8-yl)(1H-indol-6-yl)methanone]	494
CS(=O)(=O)c1cccc(OC[C@@H](O)CNC2COC3(CCN(S(=O)(=O)c4cccc(-c5cncnc5)c4)CC3)C2)c1 (stereo partly drawn) [Compound 71, (2S)-1-(3-(methylsulfonyl)phenoxy)-3-(8-(3-(pyrimidin-5-yl)phenylsulfonyl)-1-oxa-8-azaspiro[4.5]decan-3-ylamino)propan-2-ol]	39
CS(=O)(=O)c1cccc(OC[C@@H](O)CNC2COC3(CCN(S(=O)(=O)c4ccc5c(c4)CCO5)CC3)C2)c1 (stereo partly drawn) [Compound 74, (2S)-1-(8-(2,3-dihydrobenzofuran-5-ylsulfonyl)-1-oxa-8-azaspiro[4.5]decan-3-ylamino)-3-(3-(methylsulfonyl)phenoxy)propan-2-ol]	38
CS(=O)(=O)c1cccc(OC[C@@H](O)CNC2COC3(CCN(S(=O)(=O)c4ccc5ncccc5c4)CC3)C2)c1 (stereo partly drawn) [Compound 75, (2S)-1-(3-(methylsulfonyl)phenoxy)-3-(8-(quinolin-6-ylsulfonyl)-1-oxa-8-azaspiro[4.5]decan-3-ylamino)propan-2-ol]	26.7
CS(=O)(=O)c1cccc(OC[C@@H](O)CNC2COC3(CCN(S(=O)(=O)c4ccc5[nH]cnc5c4)CC3)C2)c1 (stereo partly drawn) [Compound 76, (2S)-1-(8-(1H-benzo[d]imidazol-5-ylsulfonyl)-1-oxa-8-azaspiro[4.5]decan-3-ylamino)-3-(3-(methylsulfonyl)phenoxy)propan-2-ol]	35.9
CNCc1ccc(-c2cccc(S(=O)(=O)N3CCC4(CC3)CC(NC[C@H](O)COc3cccc(S(C)(=O)=O)c3)CO4)c2)cc1 (stereo partly drawn) [Compound 78, (2S)-1-(8-(4′-((methylamino)methyl)biphenyl-3-ylsulfonyl)-1-oxa-8-azaspiro[4.5]decan-3-ylamino)-3-(3-(methylsulfonyl)phenoxy)propan-2-ol]	41.9
CS(=O)(=O)c1cccc(OC[C@@H](O)CNC2COC3(CCN(S(=O)(=O)c4cccc(-c5ccc(CNCC(F)(F)F)cc5)c4)CC3)C2)c1 (stereo partly drawn) [Compound 82, (2S)-1-(3-(methylsulfonyl)phenoxy)-3-(8-(4′-((2,2,2-trifluoroethylamino)methyl)biphenyl-3-ylsulfonyl)-1-oxa-8-azaspiro[4.5]decan-3-ylamino)propan-2-ol]	43.2
CS(=O)(=O)c1cccc(OC[C@@H](O)CN[C@@H]2COC3(CCN(S(=O)(=O)c4cnc5ccccc5c4)CC3)C2)c1 [Compound 85, (S)-1-(3-(methylsulfonyl)phenoxy)-3-((S)-8-(quinolin-3-ylsulfonyl)-1-oxa-8-azaspiro[4.5]decan-3-ylamino)propan-2-ol]	17.8
O=S(=O)(CF)c1cccc(OC[C@@H](O)CNC2COC3(CCN(S(=O)(=O)c4ccc5ccccc5c4)CC3)C2)c1 (stereo partly drawn) [Compound 86, (2S)-1-(3-(fluoromethylsulfonyl)phenoxy)-3-(8-(naphthalen-2-ylsulfonyl)-1-oxa-8-azaspiro[4.5]decan-3-ylamino)propan-2-ol]	9.1
NCc1ccc(-c2cncc(S(=O)(=O)N3CCC4(CC3)C[C@@H](NC[C@H](O)COc3cccc(S(=O)(=O)CCO)c3)CO4)c2)cc1 [Compound 89, (S)-1-((R)-8-(5-(4-(aminomethyl)phenyl)pyridin-3-ylsulfonyl)-1-oxa-8-azaspiro[4.5]decan-3-ylamino)-3-(3-(2-hydroxyethylsulfonyl)phenoxy)propan-2-ol]	110
Cn1cc(-c2cncc(S(=O)(=O)N3CCC4(CC3)C[C@@H](NC[C@H](O)COc3cccc(S(=O)(=O)CCO)c3)CO4)c2)cn1 [Compound 90, (S)-1-(3-(2-hydroxyethylsulfonyl)phenoxy)-3-((R)-8-(5-(1-methyl-1H-pyrazol-4-yl)pyridin-3-ylsulfonyl)-1-oxa-8-azaspiro[4.5]decan-3-ylamino)propan-2-ol]	354
NCc1ccc(-c2cccc(S(=O)(=O)N3CCC4(CC3)C[C@@H](NC[C@H](O)COc3cccc(S(=O)(=O)CCO)c3)CO4)c2)cc1 [Compound 91, (S)-1-((R)-8-(4′-(aminomethyl)biphenyl-3-ylsulfonyl)-1-oxa-8-azaspiro[4.5]decan-3-ylamino)-3-(3-(2-hydroxyethylsulfonyl)phenoxy)propan-2-ol]	37.1

Now from value to molecule:

IC50 [nM]	SMILES
711	CS(=O)(=O)c1cccc(OC[C@@H](O)CNC2COC3(CCN(C(=O)c4cc5ccccc5[nH]4)CC3)C2)c1 (stereo partly drawn) [Compound 65, (3-((S)-2-hydroxy-3-(3-(methylsulfonyl)phenoxy)propylamino)-1-oxa-8-azaspiro[4.5]decan-8-yl)(1H-indol-2-yl)methanone]
822	CS(=O)(=O)c1cccc(OC[C@@H](O)CNC2COC3(CCN(C(=O)c4ccc5[nH]ccc5c4)CC3)C2)c1 (stereo partly drawn) [Compound 67, (3-((S)-2-hydroxy-3-(3-(methylsulfonyl)phenoxy)propylamino)-1-oxa-8-azaspiro[4.5]decan-8-yl)(1H-indol-5-yl)methanone]
21.2	CS(=O)(=O)c1cccc(OC[C@@H](O)CNC2COC3(CCN(S(=O)(=O)c4cccc(Br)c4)CC3)C2)c1 (stereo partly drawn) [Compound 69, (2S)-1-(8-(3-bromophenylsulfonyl)-1-oxa-8-azaspiro[4.5]decan-3-ylamino)-3-(3-(methylsulfonyl)phenoxy)propan-2-ol]
24.4	CS(=O)(=O)c1cccc(OC[C@@H](O)CNC2COC3(CCN(S(=O)(=O)c4cccc(-c5ccc(N)nc5)c4)CC3)C2)c1 (stereo partly drawn) [Compound 70, (2S)-1-(8-(3-(6-aminopyridin-3-yl)phenylsulfonyl)-1-oxa-8-azaspiro[4.5]decan-3-ylamino)-3-(3-(methylsulfonyl)phenoxy)propan-2-ol]
329	CS(=O)(=O)c1cccc(OC[C@@H](O)CNC2COC3(CCN(S(=O)(=O)c4ccccn4)CC3)C2)c1 (stereo partly drawn) [Compound 72, (2S)-1-(3-(methylsulfonyl)phenoxy)-3-(8-(pyridin-2-ylsulfonyl)-1-oxa-8-azaspiro[4.5]decan-3-ylamino)propan-2-ol]
23.9	CS(=O)(=O)c1cccc(OC[C@@H](O)CNC2COC3(CCN(S(=O)(=O)c4ccc5cc(Cl)ccc5c4)CC3)C2)c1 (stereo partly drawn) [Compound 73, (2S)-1-(8-(6-chloronaphthalen-2-ylsulfonyl)-1-oxa-8-azaspiro[4.5]decan-3-ylamino)-3-(3-(methylsulfonyl)phenoxy)propan-2-ol]
35.1	CS(=O)(=O)c1cccc(OC[C@@H](O)CNC2COC3(CCN(S(=O)(=O)c4ccc5[nH]ncc5c4)CC3)C2)c1 (stereo partly drawn) [Compound 77, (2,5)-1-(8-(1H-indazol-5-ylsulfonyl)-1-oxa-8-azaspiro[4.5]decan-3-ylamino)-3-(3-(methylsulfonyl)phenoxy)propan-2-ol]
42.2	CCNCc1ccc(-c2cccc(S(=O)(=O)N3CCC4(CC3)CC(NC[C@H](O)COc3cccc(S(C)(=O)=O)c3)CO4)c2)cc1 (stereo partly drawn) [Compound 79, (2S)-1-(8-(4′-((ethylamino)methyl)biphenyl-3-ylsulfonyl)-1-oxa-8-azaspiro[4.5]decan-3-ylamino)-3-(3-(methylsulfonyl)phenoxy)propan-2-ol]
38.1	CC(C)NCc1ccc(-c2cccc(S(=O)(=O)N3CCC4(CC3)CC(NC[C@H](O)COc3cccc(S(C)(=O)=O)c3)CO4)c2)cc1 (stereo partly drawn) [Compound 80, (2S)-1-(8-(4′-((isopropylamino)methyl)biphenyl-3-ylsulfonyl)-1-oxa-8-azaspiro[4.5]decan-3-ylamino)-3-(3-(methylsulfonyl)phenoxy)propan-2-ol]
27.8	CC(C)CNCc1ccc(-c2cccc(S(=O)(=O)N3CCC4(CC3)CC(NC[C@H](O)COc3cccc(S(C)(=O)=O)c3)CO4)c2)cc1 (stereo partly drawn) [Compound 81, (2S)-1-(8-(4′-((isobutylamino)methyl)biphenyl-3-ylsulfonyl)-1-oxa-8-azaspiro[4.5]decan-3-ylamino)-3-(3-(methylsulfonyl)phenoxy)propan-2-ol]
53.5	O=S(=O)(CCO)c1cccc(OC[C@@H](O)CN[C@H]2COC3(CCN(S(=O)(=O)c4ccc5c(c4)CCCO5)CC3)C2)c1 [Compound 83, (S)-1-((R)-8-(chroman-6-ylsulfonyl)-1-oxa-8-azaspiro[4.5]decan-3-ylamino)-3-(3-(2-hydroxyethylsulfonyl)phenoxy)propan-2-ol]
54.7	CN1CCOc2ccc(S(=O)(=O)N3CCC4(CC3)C[C@@H](NC[C@H](O)COc3cccc(S(=O)(=O)CCO)c3)CO4)cc21 [Compound 84, (S)-1-(3-(2-hydroxyethylsulfonyl)phenoxy)-3-((R)-8-(4-methyl-3,4-dihydro-2H-benzo[6][1,4]oxazin-6-ylsulfonyl)-1-oxa-8-azaspiro[4.5]decan-3-ylamino)propan-2-ol]
41.1	O=S(=O)(CCO)c1cccc(OC[C@@H](O)CN[C@H]2COC3(CCN(S(=O)(=O)c4ccc5c(c4)OCCC5)CC3)C2)c1 [Compound 87, (S)-1-((R)-8-(chroman-7-ylsulfonyl)-1-oxa-8-azaspiro[4.5]decan-3-ylamino)-3-(3-(2-hydroxyethylsulfonyl)phenoxy)propan-2-ol]
26.9	C=CS(=O)(=O)c1cccc(OC[C@@H](O)CN[C@H]2COC3(CCN(S(=O)(=O)c4cnc5ccccc5c4)CC3)C2)c1 [Compound 92, (S)-1-((R)-8-(quinolin-3-ylsulfonyl)-1-oxa-8-azaspiro[4.5]decan-3-ylamino)-3-(3-(vinylsulfonyl)phenoxy)propan-2-ol]
